According to ChEMBL document CHEMBL1201862, “PubChem BioAssay data set” (2004):
Calls of active or inactive are those of the source.

Experiments:
[1] = molecular target: Long-chain-fatty-acid--AMP ligase FadD28 (Mycobacterium tuberculosis, UniProt P9WQ59); test: Fluorescence polarization aasay to screen for inhibitors that compete for the binding of FadD28 to a bisubstrate Measured in Biochemical System Using Plate Reader - 2147-01_Inhibitor_Dose_CherryPick_Activity.; type: functional, Mycobacterium tuberculosis H37Rv
Long-chain-fatty-acid--AMP ligase FadD28, sequence (P9WQ59 whole entry): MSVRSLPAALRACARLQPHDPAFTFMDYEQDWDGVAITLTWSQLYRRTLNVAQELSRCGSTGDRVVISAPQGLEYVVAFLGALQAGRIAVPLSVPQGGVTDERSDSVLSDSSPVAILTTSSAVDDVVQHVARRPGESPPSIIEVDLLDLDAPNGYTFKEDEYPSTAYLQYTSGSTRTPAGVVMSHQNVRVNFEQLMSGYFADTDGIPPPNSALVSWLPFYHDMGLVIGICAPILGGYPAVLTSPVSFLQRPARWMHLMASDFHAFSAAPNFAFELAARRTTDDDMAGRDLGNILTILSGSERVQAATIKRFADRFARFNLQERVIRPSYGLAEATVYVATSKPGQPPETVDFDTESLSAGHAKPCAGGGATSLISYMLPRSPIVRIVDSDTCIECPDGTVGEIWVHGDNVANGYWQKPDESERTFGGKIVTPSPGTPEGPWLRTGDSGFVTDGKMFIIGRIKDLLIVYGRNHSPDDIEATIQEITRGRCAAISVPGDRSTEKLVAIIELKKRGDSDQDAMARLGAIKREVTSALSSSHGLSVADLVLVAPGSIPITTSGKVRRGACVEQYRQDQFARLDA

[2] = molecular target: T1, Methionyl-tRNA synthetase, putative (Trypanosoma brucei brucei, UniProt Q38C91); type: functional, Trypanosoma brucei brucei strain 927/4 GUTat10.1
T1 sequence (Q38C91 whole entry): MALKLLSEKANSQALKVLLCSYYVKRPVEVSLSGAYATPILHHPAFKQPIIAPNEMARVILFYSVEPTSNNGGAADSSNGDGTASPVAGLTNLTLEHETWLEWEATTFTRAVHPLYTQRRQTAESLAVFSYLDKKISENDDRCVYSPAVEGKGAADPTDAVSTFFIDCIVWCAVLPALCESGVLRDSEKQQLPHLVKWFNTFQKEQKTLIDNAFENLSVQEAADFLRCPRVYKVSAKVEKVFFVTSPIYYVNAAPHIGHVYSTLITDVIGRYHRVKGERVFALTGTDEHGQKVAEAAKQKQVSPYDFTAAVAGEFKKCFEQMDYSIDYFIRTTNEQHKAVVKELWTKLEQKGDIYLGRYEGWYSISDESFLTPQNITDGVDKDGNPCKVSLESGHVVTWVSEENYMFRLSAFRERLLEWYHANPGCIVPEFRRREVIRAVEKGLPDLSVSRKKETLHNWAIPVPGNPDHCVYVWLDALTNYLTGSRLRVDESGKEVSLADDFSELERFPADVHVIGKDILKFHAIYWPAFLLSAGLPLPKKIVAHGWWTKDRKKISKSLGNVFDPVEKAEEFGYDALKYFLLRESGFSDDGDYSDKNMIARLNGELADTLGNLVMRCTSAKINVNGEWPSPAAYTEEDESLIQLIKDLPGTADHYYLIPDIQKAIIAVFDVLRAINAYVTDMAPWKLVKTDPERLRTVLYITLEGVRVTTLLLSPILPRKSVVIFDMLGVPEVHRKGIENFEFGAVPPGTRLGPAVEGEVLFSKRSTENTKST

[3] = molecular target: T1, Methionyl-tRNA synthetase, putative; type: functional, Trypanosoma brucei brucei strain 927/4 GUTat10.1; remark: listed apart in the source
[4] = Counterscreen for inhibitors of Trypanosoma brucei methionyl tRNA synthetase (MetRS): Luminescence-based cell-based high throughput dose response assay to identify compounds that are cytotoxic to Jurkat human T lymphocyte cells.; type: functional
[5] = molecular target: Potassium voltage-gated channel subfamily KQT member 2 (Rattus norvegicus, UniProt O88943); test: blockers of KCNQ2 channel current – cell-based, automated electrophysiology, set II, rat KCNQ2, dose response (AID 588637); type: functional
Potassium voltage-gated channel subfamily KQT member 2, sequence (O88943 whole entry): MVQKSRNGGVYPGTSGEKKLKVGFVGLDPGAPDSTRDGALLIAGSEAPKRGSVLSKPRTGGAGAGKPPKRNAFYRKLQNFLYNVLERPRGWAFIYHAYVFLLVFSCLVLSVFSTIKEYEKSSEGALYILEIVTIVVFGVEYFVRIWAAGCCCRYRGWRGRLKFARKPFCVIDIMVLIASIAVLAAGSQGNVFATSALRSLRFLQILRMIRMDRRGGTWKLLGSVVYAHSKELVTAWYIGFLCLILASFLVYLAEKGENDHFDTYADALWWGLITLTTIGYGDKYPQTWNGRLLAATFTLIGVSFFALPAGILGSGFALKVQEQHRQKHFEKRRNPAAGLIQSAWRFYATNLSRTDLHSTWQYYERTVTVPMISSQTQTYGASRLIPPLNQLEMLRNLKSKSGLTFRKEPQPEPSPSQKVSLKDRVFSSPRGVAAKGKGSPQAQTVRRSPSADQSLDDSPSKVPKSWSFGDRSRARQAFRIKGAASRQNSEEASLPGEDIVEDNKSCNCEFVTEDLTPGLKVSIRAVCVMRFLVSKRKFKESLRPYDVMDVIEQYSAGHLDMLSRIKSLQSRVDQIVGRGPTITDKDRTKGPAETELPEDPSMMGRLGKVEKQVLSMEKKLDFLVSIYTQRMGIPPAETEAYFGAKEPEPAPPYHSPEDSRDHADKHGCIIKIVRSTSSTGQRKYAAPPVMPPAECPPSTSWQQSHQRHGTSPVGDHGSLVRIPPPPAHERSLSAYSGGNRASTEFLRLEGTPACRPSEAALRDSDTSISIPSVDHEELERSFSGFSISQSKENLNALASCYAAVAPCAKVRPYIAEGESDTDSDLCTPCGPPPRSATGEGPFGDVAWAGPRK

[6] = molecular target: T2, Aryl hydrocarbon receptor (Homo sapiens, UniProt P35869); conditions: Potency;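 note: confirmatory quantitative high-throughput screen measuring activation of the AhR signaling pathway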
T2 sequence (P35869 whole entry): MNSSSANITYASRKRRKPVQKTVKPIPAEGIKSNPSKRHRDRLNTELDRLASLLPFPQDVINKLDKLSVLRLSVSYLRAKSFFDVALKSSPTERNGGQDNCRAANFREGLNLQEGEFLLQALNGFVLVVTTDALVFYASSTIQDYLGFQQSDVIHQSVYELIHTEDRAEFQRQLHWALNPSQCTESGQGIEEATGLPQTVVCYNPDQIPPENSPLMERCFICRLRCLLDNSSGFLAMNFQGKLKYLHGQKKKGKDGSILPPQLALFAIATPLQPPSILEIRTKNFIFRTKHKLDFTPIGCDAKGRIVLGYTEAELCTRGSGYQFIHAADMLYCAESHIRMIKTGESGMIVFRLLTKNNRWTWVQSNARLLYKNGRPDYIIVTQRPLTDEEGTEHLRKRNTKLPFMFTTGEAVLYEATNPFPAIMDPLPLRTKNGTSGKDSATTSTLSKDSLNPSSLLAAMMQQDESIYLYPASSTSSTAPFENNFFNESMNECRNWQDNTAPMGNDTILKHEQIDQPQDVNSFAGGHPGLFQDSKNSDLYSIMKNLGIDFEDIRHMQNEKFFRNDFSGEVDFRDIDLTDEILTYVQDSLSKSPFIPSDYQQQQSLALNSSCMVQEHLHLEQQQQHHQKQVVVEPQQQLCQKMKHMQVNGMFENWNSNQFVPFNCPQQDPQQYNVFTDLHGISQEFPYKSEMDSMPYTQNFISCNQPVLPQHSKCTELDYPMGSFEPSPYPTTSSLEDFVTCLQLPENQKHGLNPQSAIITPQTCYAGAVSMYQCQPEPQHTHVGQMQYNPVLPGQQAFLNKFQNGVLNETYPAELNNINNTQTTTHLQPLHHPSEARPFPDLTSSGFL

[7] = HIV-1 AD8 envelope cell-cell fusion blockers – cherry-pick, dose response (AID 652062); type: functional, cell-based;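 note: luciferase signal from cell-cell fusion driven by HIV-1 clade B AD8 Env; potency is for inhibitors of fusion seen as a drop in luminescence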
[8] = blockers of HIV-1 envelope-mediated cell-cell fusion – cherry-pick, dose response (AID 652057); type: functional, cell-based
[9] = reduction of Shn3 3'UTR-driven luciferase in osteoblasts – cell-based, Clone20 osteoblasts, firefly luciferase, cherry-picked, dose response (AID 624132); type: functional;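 note: firefly luciferase luminescence from reporter carrying the Shn3 3'UTR in osteoblasts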
[10] = off-target signal loss in HeLa-CEM21 co-culture – HeLa F-luc CTL cells, cherry-picked, counter-screen for HIV-1 Env fusion inhibitor project, dose response (AID 652040); type: functional, cell-based;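 note: potency for signal decrease marking cytotoxic or nonspecific inhibition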
[11] = non-specific 3'UTR reporter inhibition in Clone20-Shn3RL – cell-based, Renilla luciferase, cherry-picked, counter-screen for Shn3 inhibitor project, dose response (AID 624133); type: functional
[12] = loss of viability in HepG2 cells – cell-based, CellTiter-Glo, cherry-picked, cytotoxicity control for Shn3 inhibitor project, dose response (AID 624134); type: functional
Protein Wnt-3a = Protein Wnt-3a (Mus musculus, UniProt P27467); test: antagonism of Wnt3a pathway luciferase reporter – Wnt-LIGHT cells, luminescence, selectivity assay for Gli-SUFU antagonist project, dose response (AID 651570); type: functional; conditions: read-out: IC50_Mean;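 note: Wnt-LIGHT reporter cells stimulated with conditioned medium from Wnt3a-producing cells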
Protein Wnt-3a, sequence (P27467 whole entry): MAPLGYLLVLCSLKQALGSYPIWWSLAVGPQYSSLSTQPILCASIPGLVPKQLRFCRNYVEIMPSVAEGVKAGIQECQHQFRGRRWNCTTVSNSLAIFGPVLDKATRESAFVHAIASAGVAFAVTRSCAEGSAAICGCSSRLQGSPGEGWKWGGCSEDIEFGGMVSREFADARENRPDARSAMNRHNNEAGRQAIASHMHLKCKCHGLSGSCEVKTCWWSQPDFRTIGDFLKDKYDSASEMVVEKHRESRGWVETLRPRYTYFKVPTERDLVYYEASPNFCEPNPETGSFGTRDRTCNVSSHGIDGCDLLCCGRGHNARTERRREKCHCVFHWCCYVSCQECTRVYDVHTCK

Question: Which AC50 [1] does the source give for COc1ccc(CN2CCC(C(=O)Nc3ccc(Oc4cccnc4)cc3)CC2)cc1 here?
Answer: > 100 µM (inactive)

Question: With COc1cccc(C2c3[nH]c4ccccc4c3C[C@H]3C(=O)N(C4CC4)CC(=O)N23)c1 (some centres undefined) as the molecule, how does the IC50 [2] read?
Answer: 36.8 µM (inactive)

Question: What about the IC50 [3] of the same molecule?
Answer: 118 µM (inactive)

Question: What about the IC50 [4] of the same molecule?
Answer: 83.2 µM (inactive)

Question: Which IC50 [5] does the source give for CCc1sc(C(=O)Nc2ccccc2N2CCOCC2)cc1C here?
Answer: 5.75 µM (active)

Question: For Cc1ccc2c(c1[N+](=O)[O-])C(=O)c1ccccc1C2=O, which AC50 [6] is on record?
Answer: 17.8 µM (inconclusive)

Question: Which AC50 [6] does the source give for CC1=C(C(=O)Nc2ccccc2)SCCO1 [CARBOXIN] here?
Answer: 50.1 µM (inconclusive)

Question: Which AC50 [7] does the source give for CCC(C)NS(=O)(=O)c1ccc(S(=O)(=O)N2CCCC3(CCCCC3)C2)cc1 (centres undefined) here?
Answer: 11.7 µM (active)

Question: What about the AC50 [8] of the same molecule?
Answer: 21.4 µM (active)

Question: And the AC50 [9]?
Answer: 3.44 µM (active)

Question: What about the AC50 [10] of the same molecule?
Answer: 58.9 µM (active)

Question: And the AC50 [11]?
Answer: 5.9 µM (active)

Question: What about the AC50 [12] of the same molecule?
Answer: 6.54 µM (active)

Question: And the IC50 (Protein Wnt-3a)?
Answer: 5.16 µM (active)
